# According to ChEMBL document CHEMBL1201862, “PubChem BioAssay data set” (2004):
# Active and inactive are the calls of the source.
# Key:
# [1] = target: Glyceraldehyde-3-phosphate dehydrogenase (Homo sapiens, UniProt P04406)
# [2] = target: T1, Alkaline phosphatase, tissue-nonspecific isozyme (Homo sapiens, UniProt P05186); assay: human TNAP enzyme inhibitors, SAR follow-up, biochemical, luminescent, dose response (AID 1056)
# T1 sequence (P05186 whole entry): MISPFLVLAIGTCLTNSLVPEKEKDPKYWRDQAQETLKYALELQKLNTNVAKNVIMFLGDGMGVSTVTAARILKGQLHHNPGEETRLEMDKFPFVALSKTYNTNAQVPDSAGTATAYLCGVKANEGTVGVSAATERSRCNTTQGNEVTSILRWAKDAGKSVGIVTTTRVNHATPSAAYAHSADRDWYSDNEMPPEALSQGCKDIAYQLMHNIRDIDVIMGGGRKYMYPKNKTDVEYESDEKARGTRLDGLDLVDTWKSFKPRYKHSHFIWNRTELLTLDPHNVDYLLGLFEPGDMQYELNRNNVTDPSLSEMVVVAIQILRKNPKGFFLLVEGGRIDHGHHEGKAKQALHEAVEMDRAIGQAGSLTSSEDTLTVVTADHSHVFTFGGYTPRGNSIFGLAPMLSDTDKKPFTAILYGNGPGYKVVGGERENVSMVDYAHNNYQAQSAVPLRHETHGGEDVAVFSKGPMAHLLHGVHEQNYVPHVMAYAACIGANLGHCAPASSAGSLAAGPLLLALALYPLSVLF
# [3] = target: T2, Microphthalmia-associated transcription factor (Homo sapiens, UniProt O75030); assay: TRPM1 promoter luciferase signal decrease, dose response, MITF inhibitor project, cell-based, SK-MEL-5, cherry-picked, set 3 (AID 493073); type: functional
# T2 sequence (O75030 whole entry): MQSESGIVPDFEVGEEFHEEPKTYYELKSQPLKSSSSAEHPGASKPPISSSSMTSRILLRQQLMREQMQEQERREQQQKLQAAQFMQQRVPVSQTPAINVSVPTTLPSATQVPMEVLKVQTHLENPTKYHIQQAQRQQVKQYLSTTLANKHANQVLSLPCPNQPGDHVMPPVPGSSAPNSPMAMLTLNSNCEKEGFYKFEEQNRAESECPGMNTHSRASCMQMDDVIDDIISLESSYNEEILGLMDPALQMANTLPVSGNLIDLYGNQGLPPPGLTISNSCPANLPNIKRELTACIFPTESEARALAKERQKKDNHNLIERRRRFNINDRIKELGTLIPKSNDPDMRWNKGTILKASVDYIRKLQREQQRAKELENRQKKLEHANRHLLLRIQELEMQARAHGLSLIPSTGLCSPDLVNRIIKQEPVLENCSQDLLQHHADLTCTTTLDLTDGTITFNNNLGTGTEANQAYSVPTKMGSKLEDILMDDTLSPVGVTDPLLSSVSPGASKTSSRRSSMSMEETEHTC
# [4] = A549 cell cytotoxicity, dose response, cytotoxicity control, plate reader, cherry-pick, antagonist series (AID 743412); type: functional, cell-based
# [5] = HepG2 cell cytotoxicity, dose response, cytotoxicity control, plate reader, cherry-pick, antagonist series (AID 743416); type: functional, cell-based
# [6] = LGR2 antagonists, dose response, cell-based, HEK293, CRE-luciferase reporter, cherry pick, set 2 (AID 743343); type: functional;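 also: transfected cells were stimulated with diluted bursicon conditioned medium after compound addition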
# [7] = MC4R antagonists, dose response, counter-screen for LGR2 antagonist project, cell-based, plate reader, cherry pick (AID 743444); type: functional;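 also: transfected HEK 293 cells stimulated with alpha-MSH peptide; potency of inhibitors of the alpha-MSH evoked signal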
# [8] = HEK293 cell cytotoxicity, dose response, cytotoxicity control, plate reader, cherry-picked samples (AID 743446); type: functional, cell-based
# [9] = system: Streptococcus sp. 'group A'; assay: growth inhibition of control SK(-) GAS strain, dose response, counter-screen for streptokinase expression inhibitor project, luminescence, kanamycin, BacTiterGlo, confirmation (AID 1900); type: functional, organism-based
# Streptokinase A = target: T3, Streptokinase A (Streptococcus pyogenes serotype M1, UniProt P10520); assay: S. pyogenes streptokinase expression inhibitors, potency, dose response, plasminogen activation absorbance, OD405 (AID 1914); type: functional, Streptococcus pyogenes M1 GAS;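 also: secreted streptokinase activity via plasminogen activation per viability signal from cell pellet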
# T3 sequence (P10520 whole entry): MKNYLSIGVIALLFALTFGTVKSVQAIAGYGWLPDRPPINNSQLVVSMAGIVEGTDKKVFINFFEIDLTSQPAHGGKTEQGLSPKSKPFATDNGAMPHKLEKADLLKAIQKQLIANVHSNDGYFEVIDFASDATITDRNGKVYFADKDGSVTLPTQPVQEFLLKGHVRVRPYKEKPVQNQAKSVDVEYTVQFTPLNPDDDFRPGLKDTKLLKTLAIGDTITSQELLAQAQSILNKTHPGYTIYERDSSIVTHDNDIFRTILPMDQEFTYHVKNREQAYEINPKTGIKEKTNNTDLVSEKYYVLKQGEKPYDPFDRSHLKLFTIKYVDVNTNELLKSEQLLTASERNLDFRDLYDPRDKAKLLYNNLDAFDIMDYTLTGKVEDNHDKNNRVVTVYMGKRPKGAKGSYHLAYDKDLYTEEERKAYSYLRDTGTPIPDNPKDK
# Streptococcus = assay: Group A Streptococcus viability loss, dose response, counter-screen for streptokinase expression inhibitor project, luminescence, BacTiterGlo (AID 1915); type: functional, organism-based;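 also: potency for reduction of bacterial viability or growth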
# [10] = target: T4, Corticotropin-releasing factor receptor 2/Corticotropin-releasing factor-binding protein (Homo sapiens, UniProt P24387+Q13324); assay: Dose Response confirmation of uHTS hits for small molecule antagonists of the CRF-binding protein and CRF-R2 receptor complex.; type: functional; details: read-out: IC50_Mean
# T4 sequence (Q13324 whole entry): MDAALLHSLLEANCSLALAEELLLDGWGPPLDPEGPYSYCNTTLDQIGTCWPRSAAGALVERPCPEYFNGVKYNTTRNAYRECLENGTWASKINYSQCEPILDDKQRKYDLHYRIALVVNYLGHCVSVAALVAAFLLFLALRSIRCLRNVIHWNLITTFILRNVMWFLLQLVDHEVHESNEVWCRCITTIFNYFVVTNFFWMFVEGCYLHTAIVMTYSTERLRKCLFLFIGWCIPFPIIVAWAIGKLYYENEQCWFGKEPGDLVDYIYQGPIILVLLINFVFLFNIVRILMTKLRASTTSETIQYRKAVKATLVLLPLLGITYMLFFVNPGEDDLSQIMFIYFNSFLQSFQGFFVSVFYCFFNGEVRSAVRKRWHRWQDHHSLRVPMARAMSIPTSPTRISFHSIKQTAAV
# T4 sequence (P24387 whole entry): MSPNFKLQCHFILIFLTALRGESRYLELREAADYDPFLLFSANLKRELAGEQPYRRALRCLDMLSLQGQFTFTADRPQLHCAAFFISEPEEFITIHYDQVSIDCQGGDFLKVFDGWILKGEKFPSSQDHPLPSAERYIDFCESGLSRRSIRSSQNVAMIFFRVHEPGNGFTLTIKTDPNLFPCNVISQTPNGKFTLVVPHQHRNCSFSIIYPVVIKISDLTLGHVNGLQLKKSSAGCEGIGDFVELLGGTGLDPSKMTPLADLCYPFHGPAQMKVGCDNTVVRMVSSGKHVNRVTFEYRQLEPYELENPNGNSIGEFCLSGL
# [11] = target: T4, Corticotropin-releasing factor receptor 2/Corticotropin-releasing factor-binding protein; assay: activators of CRF receptor 2 with binding protein – uHTS hits, confirmation (AID 602473); type: functional; details: read-out: EC50_Mean
# [12] = CRF-BP/CRF-R2 complex antagonists, dose response, cell-based, uHTS hits, 384-well (AID 651639); type: functional, Homo sapiens; details: read-out: IC50_Mean
# Protein skinhead-1 = target: T5, Protein skinhead-1 (Caenorhabditis elegans, UniProt P34707); type: functional
# T5 sequence (P34707 whole entry): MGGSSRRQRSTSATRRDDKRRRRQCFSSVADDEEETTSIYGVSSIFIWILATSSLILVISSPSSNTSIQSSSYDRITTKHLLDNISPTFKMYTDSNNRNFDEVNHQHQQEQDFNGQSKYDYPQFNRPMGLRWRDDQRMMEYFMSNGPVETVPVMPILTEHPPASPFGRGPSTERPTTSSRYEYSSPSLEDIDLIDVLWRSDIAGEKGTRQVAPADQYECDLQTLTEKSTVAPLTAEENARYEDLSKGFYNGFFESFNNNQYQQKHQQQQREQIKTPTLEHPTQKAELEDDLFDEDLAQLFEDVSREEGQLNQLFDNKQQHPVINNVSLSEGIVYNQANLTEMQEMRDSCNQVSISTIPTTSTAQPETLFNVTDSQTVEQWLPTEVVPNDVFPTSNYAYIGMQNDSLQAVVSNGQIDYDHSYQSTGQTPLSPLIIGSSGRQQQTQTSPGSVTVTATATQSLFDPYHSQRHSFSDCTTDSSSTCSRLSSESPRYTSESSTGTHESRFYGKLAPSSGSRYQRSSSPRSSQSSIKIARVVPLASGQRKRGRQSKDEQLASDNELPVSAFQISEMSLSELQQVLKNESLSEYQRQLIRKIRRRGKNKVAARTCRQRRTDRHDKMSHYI
# Cytochrome P450 3A4 = Cytochrome P450 3A4 (Homo sapiens, UniProt P08684);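 also: CYP3A4 tested as one member of a cytochrome P450 panel screen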
# Vero = Vero cell cytotoxicity, cytotoxicity control for flavivirus capping enzyme inhibitors (AID 588742); type: functional; details: Chlorocebus sabaeus
# Genome polyprotein = Genome polyprotein (dengue virus type 2, UniProt P29990); assay: Dengue-2 NS5 methyltransferase inhibitors, primary screen, biochemical, confirmation dose response (AID 588689); type: functional
# Cytochrome P450 2C19 = Cytochrome P450 2C19 (Homo sapiens, UniProt P33261); assay: Cytochrome panel assay with activity outcomes. Panel member name: p450-cyp2c19 Compounds with AC50 equal or less than 10 uM are considered active; type: functional; details: read-out: AC50
# Chain of Cytochrome P450 2C19 (P33261 whole entry): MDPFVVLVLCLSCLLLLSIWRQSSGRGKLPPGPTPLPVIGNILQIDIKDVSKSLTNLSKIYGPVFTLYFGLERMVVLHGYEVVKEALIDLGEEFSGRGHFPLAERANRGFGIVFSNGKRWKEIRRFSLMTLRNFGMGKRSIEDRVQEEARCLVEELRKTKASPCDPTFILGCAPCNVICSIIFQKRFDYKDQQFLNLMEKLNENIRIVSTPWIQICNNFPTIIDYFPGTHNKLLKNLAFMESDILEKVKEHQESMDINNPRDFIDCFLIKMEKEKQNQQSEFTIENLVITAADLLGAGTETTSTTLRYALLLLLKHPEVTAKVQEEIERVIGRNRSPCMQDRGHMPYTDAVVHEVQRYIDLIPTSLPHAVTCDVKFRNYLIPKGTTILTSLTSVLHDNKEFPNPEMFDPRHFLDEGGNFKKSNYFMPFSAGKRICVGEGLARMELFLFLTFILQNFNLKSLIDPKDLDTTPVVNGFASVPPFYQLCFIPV
# Chain of Cytochrome P450 3A4 (P08684 whole entry): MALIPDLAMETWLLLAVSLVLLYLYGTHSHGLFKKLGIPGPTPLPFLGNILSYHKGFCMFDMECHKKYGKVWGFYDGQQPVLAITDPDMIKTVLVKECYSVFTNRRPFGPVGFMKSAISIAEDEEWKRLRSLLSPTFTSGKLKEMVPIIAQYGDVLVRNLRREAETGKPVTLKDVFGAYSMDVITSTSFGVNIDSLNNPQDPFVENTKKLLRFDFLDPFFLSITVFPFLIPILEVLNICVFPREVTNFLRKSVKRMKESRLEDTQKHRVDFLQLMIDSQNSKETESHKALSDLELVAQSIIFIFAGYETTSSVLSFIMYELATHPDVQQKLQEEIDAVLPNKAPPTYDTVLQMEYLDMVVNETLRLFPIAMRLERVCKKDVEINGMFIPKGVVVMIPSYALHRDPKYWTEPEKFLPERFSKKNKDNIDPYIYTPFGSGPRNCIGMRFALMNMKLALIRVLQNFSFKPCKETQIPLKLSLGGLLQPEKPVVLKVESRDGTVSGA
# Chain of Glyceraldehyde-3-phosphate dehydrogenase (P04406 whole entry): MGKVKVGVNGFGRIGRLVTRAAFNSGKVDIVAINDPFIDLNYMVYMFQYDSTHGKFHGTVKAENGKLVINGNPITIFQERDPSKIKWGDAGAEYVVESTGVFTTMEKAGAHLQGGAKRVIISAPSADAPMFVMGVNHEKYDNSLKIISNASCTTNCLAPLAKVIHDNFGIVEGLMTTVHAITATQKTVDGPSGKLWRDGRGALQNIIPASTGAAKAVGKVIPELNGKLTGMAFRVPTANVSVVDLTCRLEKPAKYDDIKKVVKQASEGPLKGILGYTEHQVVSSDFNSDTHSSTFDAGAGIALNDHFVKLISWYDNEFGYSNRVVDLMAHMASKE
# Chain of Genome polyprotein (P29990 2492-3391 limits assumed): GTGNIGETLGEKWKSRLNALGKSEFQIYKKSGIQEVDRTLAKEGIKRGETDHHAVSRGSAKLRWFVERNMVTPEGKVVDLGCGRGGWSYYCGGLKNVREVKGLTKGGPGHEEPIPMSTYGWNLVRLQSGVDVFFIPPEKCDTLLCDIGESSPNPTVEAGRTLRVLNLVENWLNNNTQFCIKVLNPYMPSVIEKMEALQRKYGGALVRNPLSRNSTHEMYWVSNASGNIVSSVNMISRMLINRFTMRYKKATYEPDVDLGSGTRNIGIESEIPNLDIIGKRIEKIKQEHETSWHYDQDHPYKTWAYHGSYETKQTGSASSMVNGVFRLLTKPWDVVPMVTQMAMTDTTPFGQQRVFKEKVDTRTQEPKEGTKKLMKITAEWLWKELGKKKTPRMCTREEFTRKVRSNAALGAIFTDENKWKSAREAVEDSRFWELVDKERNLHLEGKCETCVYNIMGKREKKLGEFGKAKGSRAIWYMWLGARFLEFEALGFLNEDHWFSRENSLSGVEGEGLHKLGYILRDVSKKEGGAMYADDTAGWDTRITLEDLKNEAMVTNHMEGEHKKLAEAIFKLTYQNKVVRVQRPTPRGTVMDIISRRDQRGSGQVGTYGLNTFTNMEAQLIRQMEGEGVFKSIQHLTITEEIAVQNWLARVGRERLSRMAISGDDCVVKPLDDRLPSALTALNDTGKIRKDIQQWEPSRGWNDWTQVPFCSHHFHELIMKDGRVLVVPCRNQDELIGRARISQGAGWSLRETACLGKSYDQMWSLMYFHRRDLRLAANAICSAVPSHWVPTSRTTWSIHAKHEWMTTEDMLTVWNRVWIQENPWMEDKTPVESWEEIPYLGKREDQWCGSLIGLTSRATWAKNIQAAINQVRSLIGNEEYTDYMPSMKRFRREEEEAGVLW
structure (smiles),measurement,setting,value
COC(=O)c1cc(-c2ccc([N+](=O)[O-])cc2)[nH]n1,IC50,[1],> 100 µM (not active)
same,IC50,[2],> 100 µM (inactive)
Cc1ccc(-c2cc3onc(-c4ccccc4)c3c(=O)n2C)cc1,AC50,[3],9.76 µM (active)
same,AC50,[4],> 52 µM (inactive)
same,AC50,[5],27.6 µM (active)
same,AC50,[6],1.67 µM (active)
same,AC50,[7],3.13 µM (active)
same,AC50,[8],43.6 µM (active)
COc1ccc(-c2c(C(F)(F)F)nn3c(O)cc(-c4ccccc4)nc23)cc1,EC50,[9],8.01 µM (active)
same,EC50,Streptokinase A,> 150 µM (not active)
same,EC50,Streptococcus,11.6 µM (active)
same,IC50,[10],4.6 µM (active)
same,EC50,[11],> 53 µM (inactive)
same,IC50,[12],15.7 µM (active)
CN(CC(=O)NCCc1ccccc1)S(=O)(=O)c1ccc(Br)s1,IC50,Protein skinhead-1,> 100 µM (inactive)
C=CCOc1ccc(CNC(C)(C)CO)cc1OC.Cl,AC50,Cytochrome P450 3A4,inconclusive
O=C(Oc1ccccc1)N1CCC2(CCN(Cc3nccs3)CC2)CC1,AC50,Cytochrome P450 3A4,inconclusive
CCOc1ccc(-n2c(=S)sc3c(O)nc(SCC(=O)C(C)(C)C)nc32)cc1,CC50,Vero,> 40 µM (active)
same,IC50,Genome polyprotein,54.2 µM (active)
O=C1c2c(Cl)c(Cl)c(Cl)c(Cl)c2C(=O)N1c1nnc[nH]1,IC50,[1],5.3 µM (active)
same,IC50,[2],> 100 µM (inactive)
O=C1C(NS(=O)(=O)c2cccs2)=C(N2CCN(c3cccc(Cl)c3)CC2)C(=O)c2ccccc21,CC50,Vero,> 40 µM (active)
O=C(c1ccco1)N1CCC2(CC1)CN(c1ncccn1)C2,AC50,Cytochrome P450 2C19,25.1 µM (inconclusive)
same,AC50,Cytochrome P450 3A4,inconclusive
